In US8034602B2 (priority 2006, dated 2011):

System: mutant strain CJR0500
Assay: Flask fermentation with tryptophan added to fermentation medium
Assay type: cell-based, Corynebacterium glutamicum
Conditions: 50 mg/L tryptophan in fermentation medium, 30° C., 64 hrs, shaking

Structure (SMILES): N[C@@H](Cc1c[nH]c2ccccc12)C(=O)O [Tryptophan, L-tryptophan]
- Effect of tryptophan addition on growth: stimulate the growth
